“Also recorded” adds a separate entry of the source.
System: control diet-derived organoids
Assay: Ex vivo exposure of crypts and organoids to palmitic acid
Assay type: cell-based, mouse
Experimental: To examine whether PA, like a HFD, augmented the numbers of ISCs per primary organoid, we assayed the self-renewal capacity of the primary organoids in secondary cultures and assessed how PA-treatment influenced the frequency of ISCs.
Isolated crypts were counted and embedded in Matrigel™ (Corning 356231 growth factor reduced) at 5-10 crypts per μl and cultured in a modified form of medium as described previously.^14 Briefly, Advanced DMEM (Gibco) was supplemented by EGF 40 ng ml^−1 (R&D), Noggin 200 ng ml^−1 (Peprotech), R-spondin […](R&D or Sino Biological), N-acetyl-L-cysteine 1 μM (Sigma-Aldrich), N2 1X (Life Technologies), B27 1X (Life Technologies), Chiron 10 μM (Stemgent), Y-27632 dihydrochloride monohydrate 20 ng ml^−1 (Sigma-Aldrich). 25 μL drops of Matrigel™ with crypts were plated onto a flat bottom 48-well plate (Corning 3548) and allowed to solidify for 20-30 minutes in a 37° C. incubator. Three hundred microliters of crypt culture medium was then overlaid onto the Matrigel™, changed every three days, and maintained at 37° C. in fully humidified chambers containing 5% CO2. Clonogenicity (colony-forming efficiency) was calculated by plating 50-300 crypts and assessing organoid formation 3-7 days or as specified after initiation of cultures.
Isolated ISCs or progenitor cells were centrifuged for 5 minutes at 250 g, re-suspended in the appropriate volume of crypt culture medium (500-1,000 cells μl^−1), then seeded onto 25-30 μl Matrigel™ (Corning 356231 growth factor reduced) containing 1 μM jagged (Ana-Spec) in a flat bottom 48-well plate (Corning 3548). Alternatively, ISCs and Paneth cells were mixed after sorting in a 1:1 ratio, centrifuged, and then seeded onto Matrigel™. The Matrigel™ and cells were allowed to solidify before adding 300 μl of crypt culture medium. The crypt media was changed every second or third day. Organoid bodies were quantified on days 3, 7 and 10 of culture, unless otherwise specified. With respect to the study results presented in FIGS. 14-16, organoid bodies were quantified on day 3-4. […]

With `CCCCCCCCCCCCCCCC(=O)O` [PA, palmitic acid] the “primary organoid formation (clonogenic potential of crypts)” value (30 μM PA) was “did not change; also recorded: no effect”, the secondary organoid-forming activity (30 μM PA, four weeks) was “more than twofold increase; also recorded: more secondary organoid-forming activity” and the “frequency of Lgr5-GFP^hi ISCs in organoids” value (four-week PA treatment) was “twofold increase; also recorded: increased the frequency”.
